Experimental data from patent US6133279A, “Therapeutic agents for renal diseases and organ preservatives” (Chugai Seiyaku Kabushiki Kaisha, priority 1996, dated 2000).
Like-named read-outs stand apart in the source and are kept apart here.

What was measured:
[1] = test system: murine mesangial derived MES13 cells; experiment: Protective effect against oxidized LDL-induced injury of murine mesangial cells (in vitro); assay type: cell-based; conditions: Mus musculus, MES13, 10 h, mean ± standard deviation, read-out: Cytoprotection rate (%)
Description: For the purpose of evaluating in vitro cytoprotective effect of the compounds of the present invention on mesangial cells, a cytoprotective study was performed using murine mesangial derived MES13 cells (ATCC-CRL-1927) injured by oxidized LDL.
Oxidized LDL was prepared in the same manner as in Test example 1. Cell culture was carried out by plating 2.5×10^4 cells/250 μl/well on a 48-well plate using FBS-free medium (mixture of DME medium and F12 medium in a ratio of 3:1). Test compounds were dissolved or suspended in ethanol and added to the wells in an amount of 1.25 μl/well to a concentration of 1 or 10 μM in each well. After 16 hours or immediately after the addition of the compounds, oxidized LDL was added to cells in an amount of 25 μl/well to a concentration of 91 μg/ml and the cells were cultured for 10 hours after addition of the oxidized LDL. Then, 150 μl/well of the culture medium were collected and measured for the lactate dehydrogenase level (LDL: SIGMA DIAGNOSTICS) having leaked in the medium.
The magnitude of cytoprotective effect was expressed as the cytoprotection rate which was determined by calculating the data assuming that the magnitude in wells containing oxidized LDL is 0% and that the magnitude in containing saline is 100%.

[2] = test system: puromycin-induced nephrosis model; experiment: Puromycin-induced nephrosis (1), preadministration (in vivo); parameters: species or system rat (male SD rats); conditions: day 8; for Creatinine clearance: control 576 ± 148; for Creatinine: serum, control 0.93 ± 0.21
Description: Effect of the compound of the present invention on an in vivo renal disease was studied using a puromycin-induced nephrosis model.
A puromycin-induced renal failure model was prepared from rats in groups of 5-8 each (6 week-old male SD rats) fed with high-fat diet. High-fat diet feeding was started by free access to high-fat diet (cholesterol level 1.25%) from 7 days before puromycin treatment. Puromycin (puromycin aminonucleoside, SIGMA Chemical Co.) treatment was performed by intraperitoneal administration at a dose of 100 mg/kg. The test compound was administered as a solution in soybean oil via oral route (4 ml/kg). Control group was orally administered soybean oil alone. The administration of compound was started from 3 days before the puromycin treatment once a day. After the puromycin treatment, the oral administration of the compound was continued.
Renal functions were determined by using urine and blood samples collected on day 8 after the puromycin treatment. Volume of urine and the creatinine levels in serum and urine were evaluated to calculate creatinine clearance as an indication of renal functions.

[3] = test system: puromycin-induced nephrosis model; experiment: Puromycin-induced nephrosis (2), postadministration (in vivo); parameters: species or system rat (male SD rats); conditions: 200 mg/kg oral once a day from the day following puromycin
Description: Effect of the compounds of the present invention on an in vivo renal disease was studied using a puromycin-induced nephrosis model. A puromycin-induced renal failure model was prepared from rats in groups of 5-8 each (6 week-old male SD rats) fed with high-fat diet. High-fat diet feeding was started by free access to high-fat diet (cholesterol level 1.25%) from 7 days before puromycin treatment. Puromycin (puromycin aminonucleoside, SIGMA Chemical Co.) treatment was performed by intraperitoneal administration at a dose of 100 mg/kg. Test compounds were administered as a solution in soybean oil via oral route (4 ml/kg). Control group was orally administered soybean oil alone. Probucol and a water-soluble α-tocopherol analogue, Trolox, were used as reference control compounds. The compounds were orally administered once a day from the following day of the puromycin treatment. Renal functions were determined by using urine and blood samples. The volume of urine, urea nitrogen level and creatinine levels of serum and urine were evaluated to calculate creatinine clearance as an indication of renal functions.

[4] = test system: ischemic acute renal failure model; experiment: Ischemic acute renal failure model, renal ischemia 30 minutes (in vivo); parameters: species or system rat (male SD rats); conditions: 200 mg/kg oral once a day
Description: (§1) Effect of a compound of the present invention on an in vivo renal disease was studied using an ischemic acute renal failure model.
(§2) An ischemic acute renal failure model was prepared from in groups of 8 each rats (male SD rats, weight: 224-285 g) fed with high-fat diet. High-fat diet feeding was started by free access to high-fat diet (cholesterol level 1.25%) from 7 or 8 days prior to unilateral nephrectomy and left renal artery clamping. The test compound was administered as a solution in soybean oil via oral route (4 ml/kg). Control group was orally administered soybean oil alone. The administration of compound was started from 4 or 5 days before the ischemic treatment at a dose of 200 mg/kg once a day. After the ischemia treatment, the oral administration of the compound was continued at a frequency of once a day. The ischemic treatment was performed by removing the right kidney and clipping a renal artery of the left kidney for 30 or 60 minutes.
(§3) Renal functions after ischemic treatment were determined by using urine and blood samples daily collected. Urine volume and the creatinine level of serum and urine were evaluated to calculate creatinine clearance as an indication of renal functions. Influences of high-fat diet feeding were monitored by measuring serum cholesterol level.

[5] = test system: ischemic acute renal failure model; experiment: Ischemic acute renal failure model, renal ischemia 60 minutes (in vivo); parameters: species or system rat (male SD rats); conditions: 200 mg/kg oral once a day
Description: as §1, §2, §3

[6] = compound added 16 hours before adding oxidized LDL
[7] = compound added immediately before adding oxidized LDL
[8] = 20 mg/kg oral once a day from 3 days before puromycin
[9] = 200 mg/kg oral once a day from 3 days before puromycin, P < 0.05

Compound: CCCCCC1(CCCCC)Cc2c(cc(C(C)(C)C)c(O)c2C(C)(C)C)O1 [Example 36, 4,6-Di-t-butyl-2,2-di-n-pentyl-5-hydroxy-2,3-dihydrobenzofuran]
- inhibition at 1 µM [1, 6]: 9.7 ± 1.8%
- inhibition at 1 µM [1, 7]: 2.7 ± 0.7%
- inhibition at 10 µM [1, 6]: 43.5 ± 0.5%
- inhibition at 10 µM [1, 7]: 40 ± 3.5%
- Creatinine clearance [2, 8]: 724 ± 176 mL/day
- Creatinine clearance [2, 9]: 1055 ± 482 mL/day
- Creatinine [2, 8]: 0.71 ± 0.14 mg/dL
- Creatinine [2, 9]: 0.59 ± 0.23 mg/dL
- Creatinine ([3]; control 0.82 ± 0.07): 0.75 ± 0.11 mg/dL
- Urine nitrogen ([3]; control 30.74 ± 10.95): 24.57 ± 10.68 mg/dL
- Creatinine clearance ([3]; control 824 ± 108): 837 ± 205 mL/day
- Creatinine ([4]; 1 day after ischemia (30 minutes), control 1.73 ± 0.73, P < 0.05): 1.06 ± 0.24 mg/dL
- Creatinine clearance ([4]; 1 day after ischemia (30 minutes), control 632 ± 167, P < 0.05): 934 ± 253 mL/day
- Creatinine ([4]; 2 days after ischemia (30 minutes), control 1.84 ± 1.40): 0.96 ± 0.23 mg/dL
- Creatinine clearance ([4]; 2 days after ischemia (30 minutes), control 678 ± 277, P < 0.05): 1095 ± 325 mL/day
- Creatinine ([4]; 3 days after ischemia (30 minutes), control 2.19 ± 2.34): 1.05 ± 0.26 mg/dL
- Creatinine ([5]; 1 day after ischemia (60 minutes), control 3.89 ± 0.77, P < 0.01): 2.81 ± 0.42 mg/dL
- Creatinine clearance ([5]; 1 day after ischemia (60 minutes), control 276 ± 118, P < 0.05): 478 ± 171 mL/day
- Creatinine ([5]; 2 days after ischemia (60 minutes), control 3.33 ± 1.90): 1.94 ± 0.30 mg/dL
- Creatinine clearance ([5]; 2 days after ischemia (60 minutes), control 363 ± 140, P < 0.01): 594 ± 123 mL/day
- Creatinine ([5]; 3 days after ischemia (60 minutes), control 3.19 ± 2.19): 1.86 ± 0.27 mg/dL
